According to PubChem BioAssay (NCI):
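The compound was tested at five concentrations on cells cultured in 96-well plates, with a 48-hour exposure period. GI50 is the concentration that inhibits growth by half. Definition used: TGI = concentration required for complete inhibition of growth.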 Where a SMILES comes first, the peptide text is derived from it. [ ]: non-standard residue; d: D form. 2Nal = N[CH](Cc1ccc2ccccc2c1)C(=O)O

Columns and labels:
Test in all cases: inhibition of tumour cell growth, NCI panel, 48 h
[1] = system: SK-MEL-5 melanoma
[2] = system: HL-60(TB) leukemia
[3] = system: SK-OV-3 ovarian
[4] = system: PC-3 prostate
[5] = system: CAKI-1 renal
[6] = system: U251 CNS
[7] = system: HS 578T breast
[8] = system: MDA-MB-435
[9] = system: 786-0 renal
[10] = system: NCI-H522 lung

Cc1nnc(-c2ccc(C)c(-c3ccc(C(=O)NCc4ccc(Cl)cc4)cc3)c2)o1
GI50 [1]: 3.97 µM | TGI [1]: 9.53 µM | GI50 [2]: 8.55 µM | TGI [2]: 24.5 µM | GI50 [3]: 9.53 µM | TGI [3]: > 25 µM | GI50 [4]: 8.82 µM | TGI [4]: > 25 µM | GI50 [5]: 11.8 µM | TGI [5]: > 25 µM | GI50 [6]: > 25 µM | TGI [6]: > 25 µM | GI50 [7]: 10.7 µM | TGI [7]: > 25 µM | GI50 [8]: 7.15 µM | TGI [8]: > 25 µM | GI50 [9]: 18.7 µM | TGI [9]: > 25 µM | GI50 [10]: 8.49 µM | TGI [10]: > 25 µM

CC(C)C(NC(=O)C(CCCCN)NC(=O)C(Cc1c[nH]c2ccccc12)NC(=O)C(Cc1ccc(O)cc1)NC(=O)C(CS)NC(=O)C(N)Cc1ccc2ccccc2c1)C(=O)NC(CS)C(=O)NC(C(N)=O)C(C)O (stereo not given) (H-[2Nal]CYWKVCT-NH2; configuration not given here)
TGI [1]: > 12.5 µM | GI50 [2]: > 100 µM | TGI [2]: > 100 µM | GI50 [3]: > 100 µM | TGI [3]: > 100 µM | TGI [4]: > 12.5 µM | GI50 [5]: > 100 µM | TGI [5]: > 100 µM | GI50 [6]: > 100 µM | TGI [6]: > 100 µM | TGI [7]: > 12.5 µM | TGI [8]: > 12.5 µM | GI50 [9]: > 100 µM | TGI [9]: > 100 µM | TGI [10]: > 12.5 µM

CCOC(=O)c1cc(-c2ccc(OC)c(OC)c2)[nH]c1N/N=C/c1c(Cl)cccc1Cl
GI50 [1]: 0.956 µM | TGI [1]: 8.33 µM | GI50 [2]: 1.86 µM | TGI [2]: 6.15 µM | GI50 [3]: 1.85 µM | TGI [3]: 17.6 µM | GI50 [4]: 2.14 µM | TGI [4]: 19 µM | GI50 [5]: 1.59 µM | TGI [5]: 11.4 µM | GI50 [6]: 2.15 µM | TGI [6]: 18.2 µM | GI50 [7]: 2.71 µM | TGI [7]: 18.8 µM | GI50 [8]: 0.307 µM | TGI [8]: 0.829 µM | GI50 [9]: 2.77 µM | TGI [9]: 12.3 µM | GI50 [10]: 2.27 µM | TGI [10]: 30 µM

O=C1C(=O)N(c2cccc(C(F)(F)F)c2)C(=O)C(=O)C1c1nc2ccccc2s1
TGI [1]: > 100 µM | TGI [2]: 59.8 µM | TGI [3]: > 100 µM | TGI [4]: > 100 µM | TGI [5]: > 100 µM | TGI [6]: > 100 µM | TGI [7]: > 100 µM | TGI [8]: > 100 µM | TGI [9]: > 100 µM | TGI [10]: > 100 µM

CSc1ccc(C2=NN(C(C)=O)C(c3ccc(F)cc3)C2)cc1 (stereo not given)
GI50 [1]: 12.9 µM | TGI [1]: 26.4 µM | GI50 [2]: 5.56 µM | TGI [2]: 23.6 µM | GI50 [3]: 23 µM | TGI [3]: 67.7 µM | GI50 [4]: 12.7 µM | TGI [4]: 42.4 µM | GI50 [5]: 12.9 µM | TGI [5]: 42.2 µM | GI50 [6]: 5.96 µM | TGI [6]: 21.4 µM | GI50 [7]: 20.8 µM | TGI [7]: 49.7 µM | GI50 [8]: 15 µM | TGI [8]: 32.4 µM | GI50 [9]: 15.6 µM | TGI [9]: 35.7 µM | GI50 [10]: 14.7 µM | TGI [10]: 34.5 µM

CN1CCN(Cc2ccc(NC(=O)c3cncc(C#Cc4cnn5ccccc45)c3)cc2C(F)(F)F)CC1
GI50 [1]: 0.902 µM | TGI [1]: 1.72 µM | GI50 [2]: 0.25 µM | TGI [2]: 1.15 µM | GI50 [3]: 1.51 µM | TGI [3]: 4.61 µM | GI50 [4]: 1.01 µM | TGI [4]: 4.19 µM | GI50 [5]: 0.94 µM | TGI [5]: 4.56 µM | GI50 [6]: 1.06 µM | TGI [6]: 4.15 µM | GI50 [7]: 0.735 µM | TGI [7]: 2.91 µM | GI50 [8]: 0.729 µM | TGI [8]: 1.7 µM | GI50 [9]: 1.1 µM | TGI [9]: 2.26 µM | GI50 [10]: 0.838 µM | TGI [10]: 2.27 µM

COc1ccc(/C=C2\CC(C)CC3C2=NN(c2ccccc2)C3c2ccc(OC)c(OC)c2)cc1OC (stereo not given)
GI50 [1]: 2.41 µM | TGI [1]: 6.94 µM | GI50 [2]: 2.76 µM | TGI [2]: 8.7 µM | GI50 [3]: 9.29 µM | TGI [3]: > 100 µM | GI50 [4]: 6.32 µM | TGI [4]: > 100 µM | GI50 [5]: 6.47 µM | TGI [5]: > 100 µM | GI50 [6]: 3.92 µM | TGI [6]: 15.3 µM | GI50 [7]: > 100 µM | TGI [7]: > 100 µM | GI50 [8]: 3.2 µM | TGI [8]: > 100 µM | GI50 [9]: 5.24 µM | TGI [9]: 37.3 µM | GI50 [10]: 4.83 µM | TGI [10]: > 100 µM

COC(=O)C(=O)C(C(=O)C(=O)Nc1ccc(C)cc1)c1nc2ccc(C(=O)c3ccccc3)cc2[nH]c1=O (stereo not given)
TGI [1]: > 100 µM | TGI [2]: > 100 µM | TGI [3]: > 100 µM | TGI [4]: > 100 µM | TGI [5]: > 100 µM | TGI [6]: > 100 µM | TGI [7]: > 100 µM | TGI [8]: > 100 µM | TGI [9]: > 100 µM | TGI [10]: > 100 µM

CN(O)C(=S)c1ccccc1
TGI [1]: 16.3 µM | TGI [2]: 7.04 µM | TGI [3]: > 95.5 µM | TGI [4]: > 59.1 µM | TGI [5]: 81.3 µM | TGI [6]: > 100 µM | TGI [7]: > 100 µM | TGI [8]: > 100 µM | TGI [9]: 14.3 µM | TGI [10]: 0.688 µM

O=C(Cn1c(C(=O)c2ccccc2)nc2ccccc21)c1ccc(F)cc1
GI50 [1]: 4.13 µM | TGI [1]: > 82.2 µM | GI50 [2]: 1.65 µM | TGI [2]: 5.9 µM | GI50 [3]: 32.7 µM | TGI [3]: > 100 µM | GI50 [4]: 13.6 µM | TGI [4]: > 100 µM | TGI [5]: > 30.9 µM | GI50 [6]: 4.11 µM | TGI [6]: > 100 µM | GI50 [7]: 11.5 µM | TGI [7]: > 100 µM | GI50 [8]: 1.19 µM | GI50 [9]: 20.8 µM | TGI [9]: > 100 µM | GI50 [10]: 5.92 µM | TGI [10]: > 62.9 µM

O=c1c(-c2ccc(O)cc2)coc2cc(OC3OC(CO)C(O)C(O)C3O)cc(O)c12 (stereo not given)
GI50 [1]: > 100 µM | TGI [1]: > 100 µM | GI50 [2]: > 100 µM | TGI [2]: > 100 µM | GI50 [3]: > 100 µM | TGI [3]: > 100 µM | TGI [4]: > 100 µM | GI50 [5]: > 10 µM | TGI [5]: > 100 µM | GI50 [6]: > 100 µM | TGI [6]: > 100 µM | TGI [7]: > 100 µM | GI50 [8]: > 100 µM | TGI [8]: > 100 µM | GI50 [9]: > 10 µM | TGI [9]: > 100 µM | TGI [10]: > 100 µM

CC[C@@H](C)Nc1cc(C(=O)NC2CC3CCC(C2)N3c2ccc(C(=O)C3CC3)cn2)c(C)cc1C(N)=O (stereo not given in full)
GI50 [1]: 0.0599 µM | TGI [1]: 8.35 µM | GI50 [2]: 0.0329 µM | TGI [2]: 88.9 µM | GI50 [3]: < 0.0114 µM | TGI [3]: > 100 µM | GI50 [4]: 0.0469 µM | TGI [4]: > 100 µM | GI50 [5]: 0.0597 µM | TGI [5]: > 100 µM | GI50 [6]: 0.0669 µM | TGI [6]: > 100 µM | GI50 [7]: 0.186 µM | TGI [7]: > 100 µM | GI50 [8]: 0.0391 µM | TGI [8]: > 39.3 µM | GI50 [9]: 0.152 µM | TGI [9]: > 100 µM | GI50 [10]: 0.0451 µM | TGI [10]: 41.8 µM
